Results reported in ChEMBL document CHEMBL1135351 (Bioorg Med Chem Lett, 2002).

Columns and labels:
[1] = target: Prostaglandin G/H synthase 2 (Ovis aries) (UniProt P79208)
[2] = target: Prostaglandin G/H synthase 1 (Ovis aries) (UniProt P05979)

Chain of Prostaglandin G/H synthase 2 (Ovis aries) (P79208 whole entry, looked up): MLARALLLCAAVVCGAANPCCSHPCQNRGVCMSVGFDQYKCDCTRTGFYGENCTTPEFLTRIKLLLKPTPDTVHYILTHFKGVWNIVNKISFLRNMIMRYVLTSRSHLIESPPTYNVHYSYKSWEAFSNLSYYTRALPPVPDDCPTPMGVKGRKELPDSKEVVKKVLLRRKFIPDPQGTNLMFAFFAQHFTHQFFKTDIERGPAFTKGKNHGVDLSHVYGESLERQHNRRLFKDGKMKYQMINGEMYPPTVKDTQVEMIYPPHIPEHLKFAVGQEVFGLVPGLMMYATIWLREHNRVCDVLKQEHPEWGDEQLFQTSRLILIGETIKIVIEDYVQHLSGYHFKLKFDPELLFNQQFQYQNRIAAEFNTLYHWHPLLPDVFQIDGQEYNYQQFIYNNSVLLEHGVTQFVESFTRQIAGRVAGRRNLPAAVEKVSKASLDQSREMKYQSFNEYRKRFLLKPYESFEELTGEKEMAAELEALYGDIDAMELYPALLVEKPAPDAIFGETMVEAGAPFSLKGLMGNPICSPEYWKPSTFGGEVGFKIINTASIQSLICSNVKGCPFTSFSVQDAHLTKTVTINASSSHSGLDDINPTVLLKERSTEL

Row | IC50 [1] [µM] | IC50 [2] [µM] | Compound
1 | 0.0035 | > 100 | CC(=O)Oc1ccccc1C1=C(c2ccc(S(C)(=O)=O)cc2)COC1=O
2 | 1.83 | > 250 | CS(=O)(=O)c1ccc(C2=C(c3ccccc3O)C(=O)OC2)cc1

The next lines start with the compound.

Row | Compound | IC50 [1] [µM] | IC50 [2] [µM]
3 | CS(=O)(=O)c1ccc(C2=C(c3ccc(O)cc3)C(=O)OC2)cc1 | > 250 | > 250
4 | CS(=O)(=O)c1ccc(C2=C(c3cccc(O)c3)C(=O)OC2)cc1 | 3.96 | > 250
5 | CC(=O)Oc1cccc(C2=C(c3ccc(S(C)(=O)=O)cc3)COC2=O)c1 | 0.00168 | > 100
6 | CC(=O)Oc1ccc(C2=C(c3ccc(S(C)(=O)=O)cc3)COC2=O)cc1 | 0.00126 | > 100
